Counter-ions that a name gives are not always drawn. Like-named read-outs stand apart in the source and are kept apart here. Marks after values point to notes of the source that are not given here.
Columns and labels:
[1] = rabbit plasma, 37° C., HPLC
Procedure: (§1) 0.1 ml samples were taken from each of the solutions, added respectively to 1 ml of blood plasma of rabbit (taken from New Zealand white rabbits, treated according to conventional methods, anticoagulated with heparin) or 1 ml of blood plasma of rat (taken from live SD rats, processed according to conventional methods, anti coagulated with heparin), homogeneously mixed, and placed in a thermostatic water bath at 37° C. for incubation with time being recorded. Samples were taken at different time points after the experiment began, and 2 ml of acetonitrile was immediately added. The samples were shaken and centrifuged for 5 min (15,000 rpm), and the supernatant was then taken for HPLC analysis.

[2] = rat plasma, 37° C., HPLC
Procedure: as §1

KM mice = settings: for TI Mouse: TI=LD50/ED50, mouse; for Mouse ED50: disappearance of righting reflex, caudal vein injection
Procedure: (§2) Test samples for the experiment on rabbit were formulated to have corresponding concentrations based on the results from a preliminary test. […] Rats and mice were administered with samples having a fixed concentration of drugs, while the volume of administration altered according to actual situation. The volume of administration to rabbits was 1 mL/kg body weight.
(§3) ED50 and LD50 values concerning anesthesia were determined using a sequential method. Healthy KM mice (male), SD rats (male) and New Zealand White rabbits were used for test. […] For rabbits, the compounds were administered by injection at a constant rate via ear vein for 30 seconds. Before the test, a preliminary test was conducted to determine an approximate dosage (volume of administration) that leads to anesthetization (or death) of animals, which was set as the middle dosage in the formal test. […] The disappearance of righting reflex or death was used as indicators of pharmacological efficacy or toxicity, respectively. The formal test began with the administration of the middle dosage. If animals were anesthetized, a lower dosage was administered; if animals were not anesthetized, a higher dosage was administered, until the cycle was repeated for 3-4 times. LD50 and ED50 were calculated by a sequential method aot425 software. TI was calculated according to the following equation: TI=LD50/ED50.

SD rats = settings: for TI Rat: TI=LD50/ED50, rat; for Rat ED50: disappearance of righting reflex, caudal vein injection
Procedure: as §2, §3

[3] = system: New Zealand White rabbits; settings: TI=LD50/ED50, rabbit
Procedure: as §2, §3

Kunming mice = settings: tail intravenous injection, n = 5
Procedure: Rats and mice were administered with samples having a fixed concentration of drugs, while the volume of administration altered according to actual situation. The volume of administration to rabbits was 1 mL/kg body weight.
The periods during which the righting reflex of mice disappeared (latent period) and recovered (persistent period) were recorded.

physchem = settings: physiological saline, saline or isotonic
[4] = 3 mg/ml solution, confirmation test
[5] = 3 mg/ml solution, first test (*)
[6] = 6 mg/ml solution, confirmation test
[7] = 6 mg/ml solution, first test (*)
[8] = dosage 2 * ED50, 3 mg/ml solution
[9] = dosage 2 * ED50, 6 mg/ml solution

| SMILES | Dissociation percent 15 s [1] [%] | Dissociation percent 30 s [1] [%] | Dissociation percent 5 s [2] [%] | Dissociation percent 15 s [2] [%] | Dissociation percent 30 s [2] [%] | TI Mouse (KM mice; [4]) | TI Mouse (KM mice; [5]) | TI Mouse (KM mice; [6]) | TI Mouse (KM mice; [7]) | Mouse ED50 (KM mice; [4]) [mg/kg] | Mouse ED50 (KM mice; [5]) [mg/kg] | Mouse ED50 (KM mice; [6]) [mg/kg] | Mouse ED50 (KM mice; [7]) [mg/kg] | TI Rat (SD rats; 3 mg/ml solution) | TI Rat (SD rats; 6 mg/ml solution) | Rat ED50 (SD rats; 3 mg/ml solution) [mg/kg] | Rat ED50 (SD rats; 6 mg/ml solution) [mg/kg] | TI index [3] | Latent Period (Kunming mice; [8]) [s] | Persistent period (Kunming mice; [8]) [s] | further results |
| --- | --- | --- | --- | --- | --- | --- | --- | --- | --- | --- | --- | --- | --- | --- | --- | --- | --- | --- | --- | --- | --- |
| CC(C)c1cccc(C(C)C)c1OC(=O)C(F)CC(=O)[O-].[Na+] [F7, Propofol-2-(R)-fluorobutyrate monoester sodium salt] | 46.3 | 72.8 | 58.8 | 71.3 | 85.4 | 2.6 | 2.8* | 3.1 | 2.4* | 19.2 | 21.4 | 18.1 | 20.7 | 3.0 | 3.5 | 15.7 | 12.5 | 2.6 | 20.2 ± 0.6 | 335.5 ± 218.1 | Latent Period (Kunming mice; [9]): 16.2 ± 2.2 s; Persistent period (Kunming mice; [9]): 517 ± 231 s |
| CC(C)c1cccc(C(C)C)c1OC(=O)[C@H](F)CCN(C)C.Cl [E2, Propofol 4-(N,N-dimethyl)amino-2-(R)-fluorobutyrate hydrochloride] | 97.7 | 100 | 100 |  |  | 3 | 4* | 3.7 | 3.6* | 15.4 | 17.9 | 13.0 | 15.2 | 3.8 | 3.1 | 9.8 | 10.1 | 3.5 | 14.6 ± 0.9 | 383.6 ± 242.1 | Latent Period (Kunming mice; [9]): 14.2 ± 1.9 s; Persistent period (Kunming mice; [9]): 543 ± 231 s |
| CC(C)c1cccc(C(C)C)c1OC(=O)C(F)CCN(C)C (racemic) [E1, Propofol 4-(N,N-dimethyl)amino-2-(R,S)-fluorobutyrate hydrochloride] | 67.5 | 85.5 | 75.1 | 83.2 | 96.7 |  |  |  |  |  |  |  |  |  |  |  |  |  |  |  | solubility (physchem): > 20 mg/mL |

— patent US9643917B2, “Water-soluble propofol derivatives and uses thereof” (JIANGSU NHWALUOKANG PHARMCEUTICAL RESEARCH AND DEVELOPMENT …, priority 2014, dated 2017)
